Like-named read-outs stand apart in the source and are kept apart here.
Assays:
[1] = mouse, in vivo; for Plasma level of non-ester compound / AUC: po, 100 mg/kg
Description: The compounds of Examples 2, 4, 6, 7 and 8 and the 1-(ethoxycarbonyloxy)ethyl ester of compound [II] (briefly, compound A) are each administered orally to a mouse in a dose of 100 mg/kg in terms of non-ester compound, i.e., compound [II]. At 0.25, 0.5, 1.0 and 2.0 hours after administration, the concentration of the non-ester compound in the mouse plasma is determined by the cup assay using Proteus mirabilis Eb313 as the test organism and the area under the concentration-time curve for 0-2 hours (AUC) is calculated.
As control, the non-ester compound is administered subcutaneously to a mouse and the AUC value is similarly calculated.

[2] = test system: gram-positive bacteria such as Staphylococcus aureus; settings: cited from earlier work
bacteria = settings: cited from earlier work
[3] = test system: gram-negative bacteria such as Escherichia coli, Klebsiella pneumoniae, Proteus vulgaris, Proteus mirabilis and Proteus morganii; settings: cited from earlier work

| SMILES | Bioavailability ([1]; 120 min) [%] | Plasma level of non-ester compound ([1]; 15 min) [ng/mL] | Plasma level of non-ester compound ([1]; 30 min) [ng/mL] | Plasma level of non-ester compound ([1]; 60 min) [ng/mL] | AUC ([1]; 120 min) [ng·h/mL] | Plasma level of non-ester compound ([1]; 120 min) [ng/mL] | antibacterial activity [2] | antibacterial activity (bacteria) | antibacterial activity [3] | Bioavailability ([1]; sc, 120 min) [%] |
| --- | --- | --- | --- | --- | --- | --- | --- | --- | --- | --- |
| CC(OC(=O)OCC(C)(C)C)OC(=O)C1=C(CSc2nnnn2CCN(C)C)CS[C@@H]2[C@H](NC(=O)Cc3csc(N)n3)C(=O)N12 (stereo partly drawn) [Example 7, 1-(2,2-Dimethylpropoxycarbonyloxy)ethyl 7β-[2-(2-aminothiazol-4-yl)acetamido]-3-[[[1-(2-dimethylaminoethyl)-1H-tetrazol-5-yl]thio]methyl]ceph-3-em-4-carboxylate] | 92.0 | 65700 | 34500 | 7230 | 35700 | 1860 | – | – | – | – |
| CCOC(=O)OC(C)OC(=O)C1=C(CSc2nnnn2CCN(C)C)CS[C@@H]2[C@H](NC(=O)Cc3csc(N)n3)C(=O)N12 (stereo partly shown) [Compound A, 1-(ethoxycarbonyloxy)ethyl ester of compound [II], reference compound] | 23.9 | 14700 | 9200 | 2400 | 9280 | 700 | – | – | – | – |
| CCCC(C)OC(=O)OC(C)OC(=O)C1=C(CSc2nnnn2CCN(C)C)CS[C@@H]2[C@H](NC(=O)Cc3csc(N)n3)C(=O)N12 (stereo partly drawn) [Example 8, 1-(1-Methylbutoxycarbonyloxy)ethyl 7β-[2-(2-aminothiazol-4-yl)acetamido]-3-[[[1-(2-dimethylaminoethyl)-1H-tetrazol-5-yl]thio]methyl]ceph-3-em-4-carboxylate] | 110.6 | 62700 | 48900 | 11200 | 42500 | 860 | – | – | – | – |
| CC(C)CCOC(=O)OC(C)OC(=O)C1=C(CSc2nnnn2CCN(C)C)CS[C@@H]2[C@H](NC(=O)Cc3csc(N)n3)C(=O)N12 (stereo partly drawn) [Example 2, 1-(3-Methylbutoxycarbonyloxy)ethyl 7β-[2-(2-aminothiazol-4-yl)acetamido]-3-[[[1-(2-dimethylaminoethyl)-1H-tetrazol-5-yl]thio]methyl]ceph-3-em-4-carboxylate] | 90.8 | 65800 | 28600 | 9660 | 35300 | 1680 | – | – | – | – |
| CCC(CC)COC(=O)OC(C)OC(=O)C1=C(CSc2nnnn2CCN(C)C)CS[C@@H]2[C@H](NC(=O)Cc3csc(N)n3)C(=O)N12 (stereo partly drawn) [Example 4, 1-(2-Ethylbutoxycarbonyloxy)ethyl 7β-[2-(2-aminothiazol-4-yl)acetamido]-3-[[[1-(2-dimethylaminoethyl)-1H-tetrazol-5-yl]thio]methyl]ceph-3-em-4-carboxylate] | 83.6 | 43900 | 39500 | 8730 | 32400 | 220 | – | – | – | – |
| CN(C)CCn1nnnc1SCC1=C(C(=O)O)N2C(=O)[C@@H](NC(=O)Cc3csc(N)n3)[C@H]2SC1 [compound [II], 7β-[2-(2-aminothiazol-4-yl)acetamido]-3-[[[1-(2-dimethylaminoethyl]-1H-tetrazol-5-yl]thio]methyl]ceph-3-em-4-carboxylic acid] | – | – | – | – | – | – | potent antibacterial activity | strong antibacterial activity | potent antibacterial activity | 100 |
| CCCC(C)COC(=O)OC(C)OC(=O)C1=C(CSc2nnnn2CCN(C)C)CS[C@@H]2[C@H](NC(=O)Cc3csc(N)n3)C(=O)N12 (stereo partly drawn) [Example 6, 1-(2-Methylpentyloxycarbonyloxy)ethyl 7β-[2-(2-aminothiazol-4-yl)acetamido]-3-[[[1-(2-dimethylaminoethyl)-1H-tetrazol-5-yl]thio]methyl]ceph-3-em-4-carboxylate] | 80.1 | 50200 | 31000 | 7310 | 31100 | 2860 | – | – | – | – |
